Experimental data taken from patent publication US8309558B2, “Compounds for the treatment of hepatitis C” (Bristol-Myers Squibb Company, priority 2008, dated 2012).
Read-outs that look alike come from different tables or passages of the source.

Legend:
[1] = biological target: T1, HCV NS5B RdRp genotype 1b (Hepatitis C virus genotype 1b, UniProt Q9WMX2); experiment: Standard HCV NS5B RdRp enzyme assay; type: biochemical; details: HCV NS5B RdRp genotype 1b, read-out: IC50
T1 construct: The protein was expressed with an 18 amino acid C-terminal truncation to enhance the solubility; made in house; host or cells: E. coli BL21(DE3), pET21a vector
Summary of the method: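 C-terminally truncated (18 aa) genotype 1b NS5B from E. coli, 28 nM, with 6 nM polyA template, 180 nM biotinylated oligo-dT12 primer and 3H-UTP (0.29 μM total UTP). Hepes pH 7.5 buffer with 2% DMSO; 60 min at 30° C. EDTA stop, SPA read-out; IC50 from seven concentrations by four-parameter fit.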

HCV replicon cells = experiment: HCV replicon FRET / luciferase assay (96-well plates); type: cell-based; details: Hepatitis C virus, HCV replicon, read-out: EC50
Summary of the method: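 Trypsinized replicon cells were seeded with compound titrations and incubated at 37 °C for various times. Alamar blue was added to gauge toxicity. Plates were then rinsed and either lysed with FRET peptide reagent for kinetic fluorescence reading or switched to phenol red-free DMEM for luciferase measurement.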

T1 sequence (Q9WMX2 2420-2992): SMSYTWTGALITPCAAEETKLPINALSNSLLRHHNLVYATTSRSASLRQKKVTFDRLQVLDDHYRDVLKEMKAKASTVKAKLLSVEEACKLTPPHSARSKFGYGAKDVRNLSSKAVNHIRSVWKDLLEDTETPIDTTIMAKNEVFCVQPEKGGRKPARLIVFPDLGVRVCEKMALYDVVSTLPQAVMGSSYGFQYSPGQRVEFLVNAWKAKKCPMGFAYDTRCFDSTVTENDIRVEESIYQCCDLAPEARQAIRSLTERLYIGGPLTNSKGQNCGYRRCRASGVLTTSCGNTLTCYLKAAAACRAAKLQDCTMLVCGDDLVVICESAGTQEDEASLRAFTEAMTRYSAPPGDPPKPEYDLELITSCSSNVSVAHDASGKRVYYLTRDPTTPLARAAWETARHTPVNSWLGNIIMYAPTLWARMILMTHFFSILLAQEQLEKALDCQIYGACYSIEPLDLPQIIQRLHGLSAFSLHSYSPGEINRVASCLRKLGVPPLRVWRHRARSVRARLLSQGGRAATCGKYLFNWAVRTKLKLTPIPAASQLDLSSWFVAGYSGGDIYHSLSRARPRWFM

Row | Compound | IC50 ([1]; Table 1a) [nM] | EC50 (HCV replicon cells; Table 1a) [nM] | IC50 ([1]; Table 1b) [nM] | EC50 (HCV replicon cells; Table 1b) [nM]
1 | CNC(=O)c1c(-c2ccc(F)cc2)oc2ccc(-c3cccc(C(=O)NCc4ccccc4F)c3)cc12 | 250 to 1000 | 1000 to 10000 |  | 
2 | CCC(NC(=O)c1cc(-c2ccc3oc(-c4ccc(F)cc4)c(C(=O)NC)c3c2F)c(C)cc1OC)c1ncccn1 (stereo not shown) |  |  | < 250 | < 250
3 | CNC(=O)c1c(-c2ccc(F)cc2)oc2ccc(-c3cc(N)ccc3C)cc12 |  |  | 1000 to 10000 | 1000 to 10000
4 | CNC(=O)c1c(-c2ccc(F)cc2)oc2ccc(-c3cccc(S(=O)(=O)NCc4ccccc4)c3)cc12 | > 10000 | > 10000 |  | 
5 | CNC(=O)c1c(-c2ccc(F)cc2)oc2ccc(-c3cccc(C(=O)N4Cc5ccccc5C4)c3)cc12 | > 400 | > 10000 |  | 
6 | CNC(=O)c1c(-c2ccc(F)cc2)oc2cc([N+](=O)[O-])c(-c3cccc(C(=O)O)c3)cc12 | 1000 to 10000 | > 10000 |  | 
7 | CNC(=O)c1c(-c2ccc(F)cc2)oc2ccc(-c3cc(C(=O)NC4(c5ccccn5)CC4)c(F)cc3Cl)cc12 |  |  | < 250 | < 250
8 | CCC(NC(=O)c1ccc(F)c(-c2cc3c(C(=O)NC)c(-c4ccc(F)cc4)oc3cc2N)c1)c1ccccc1 (stereo not shown) |  |  | < 250 | < 250
9 | CNC(=O)c1c(-c2ccc(F)cc2)oc2ccc(-c3cc(C(=O)NC4(c5ccn(C)n5)CC4)c(OC)cc3C)cc12 |  |  | < 250 | < 250
10 | CNC(=O)c1c(-c2ccc(F)cc2)oc2ccc(-c3cc(C(=O)NC4(c5ccccc5)CC4)ccc3C)cc12 [drawing 362] |  |  | < 250 | < 250
11 | CNC(=O)c1c(-c2ccc(F)cc2)oc2ccc(-c3cc(C(=O)NCC(C)C)ccc3OC(C)C)cc12 | 250 to 1000 | 250 to 1000 |  | 
12 | CNC(=O)c1c(-c2ccc(F)cc2)oc2ccc(-c3cnc(OC)nc3)cc12 | 1000 to 10000 | 1000 to 10000 |  | 
13 | CNC(=O)c1c(-c2ccc(F)cc2)oc2ccc(-c3cc(C(=O)NCC(C)C)ccc3OCc3ccncc3)cc12 |  |  | < 250 | < 250
14 | CNC(=O)c1c(-c2ccc(F)cc2)oc2ccc(-c3cc(OC[C@@H]4CCCN4)cc(C(=O)NCC(C)C)c3)cc12 |  |  | 1000 to 10000 | 1000 to 10000
15 | CNC(=O)Nc1c(-c2ccc(F)cc2)oc2ccc(OC(C)C)cc12 | > 10000 | > 10000 |  | 
16 | CNC(=O)c1c(-c2ccc(F)cc2)oc2ccc(-c3cccc(C(=O)N4CCCC(O)C4)c3)cc12 (stereo not shown) | 1000 to 10000 | 1000 to 10000 |  | 
17 | CNC(=O)c1c(-c2ccc(F)cc2)oc2ccc(-c3cc(C(=O)NCC(C)C)ccc3OCCN3CCCCC3)cc12 |  |  | 250 to 1000 | < 250
18 | CNC(=O)c1c(-c2ccc(F)cc2)oc2ccc(-c3cccc(C(=O)N[C@@H]4CCc5ccc(O)cc54)c3)cc12 | > 1390 | 250 to 1000 |  | 
19 | C#CCNC(=O)C1(NC(=O)c2ccc(C)c(-c3ccc4oc(-c5ccc(F)cc5)c(C(=O)NC)c4c3)c2)CC1 |  |  | < 250 | < 250
20 | CNC(=O)c1c(-c2ccc(F)cc2)oc2cc(N(CCO)S(C)(=O)=O)c(-c3cc(C(=O)NC4(c5ccccc5)CC4)ccc3C)cc12 |  |  | < 250 | < 250
21 | CNC(=O)c1c(-c2ccc(F)cc2)oc2ccc(-c3cc(C(=O)NCC(C)C)ccc3OCCN)cc12 |  |  | < 250 | < 250

Row | Compound | IC50 ([1]; Table 1a) [nM] | EC50 (HCV replicon cells; Table 1a) [nM] | IC50 ([1]; Table 1b) [nM] | EC50 (HCV replicon cells; Table 1b) [nM]
22 | CNC(=O)c1c(-c2ccc(F)cc2)oc2ccc(-c3cccc(C(=O)NC(C)(C)C(=O)Nc4cc(C)[nH]n4)c3)cc12 |  |  | < 250 | < 250
23 | CNC(=O)c1c(-c2ccc(F)cc2)oc2ccc(-c3cccc(C(=O)NC4(c5ccccc5)CCC4)c3)cc12 | < 250 | < 250 |  | 
24 | CNC(=O)c1c(-c2ccc(F)cc2)oc2ccc(-c3cccc(C(=O)N(C)CCO)c3)cc12 | 1000 to 10000 | 1000 to 10000 |  | 
25 | CNC(=O)c1c(-c2ccc(F)cc2)oc2ccc(-c3cc(C(=O)NC4(c5ccccc5)CC4)ccc3OCC(N)=O)cc12 |  |  | < 250 | < 250
26 | CNC(=O)c1c(-c2ccc(F)cc2)oc2cc([N+](=O)[O-])c(-c3cc(C(=O)NC4(c5ccccc5)CC4)ccc3F)cc12 |  |  | < 250 | < 250
27 | CNC(=O)c1c(-c2ccc(F)cc2)oc2ccc(-c3cccc(C(=O)Nc4cccc(C(=O)O)c4O)c3)cc12 | 250 to 1000 | > 10000 |  | 
28 | CCC(CC)NC(=O)c1cccc(-c2ccc3oc(-c4ccc(F)cc4)c(C(=O)NC)c3c2)c1 | < 250 | < 250 |  | 
29 | CNC(=O)c1c(-c2ccc(F)cc2)oc2ccc(-c3cccc(C(=O)NC(C)(C)C(=O)Nc4nccs4)c3)cc12 | < 250 | < 250 |  | 
30 | CNC(=O)c1c(-c2ccc(F)cc2)oc2ccc(-c3cccc(C(=O)Nc4cnccn4)c3)cc12 | < 250 | < 250 |  | 
31 | CNC(=O)c1c(-c2ccc(F)cc2)oc2ccc(-c3ccc(-c4cncc(C#N)c4)c(C(=O)NCC(C)C)c3)cc12 |  |  | < 250 | 250 to 1000
32 | CNC(=O)c1c(-c2ccc(F)cc2)oc2ccc(-c3cc(C(=O)NCC(C)C)ccc3OCc3cn(C)cn3)cc12 |  |  | 1000 to 10000 | 250 to 1000
33 | CNC(=O)c1c(-c2ccc(F)cc2)oc2ccc(-c3cc(C(=O)NC4(c5ccccc5)CC4)ccc3OCCN)cc12 |  |  | < 250 | < 250
34 | CNC(=O)c1c(-c2ccc(F)cc2)oc2ccc(-c3cccc(C(=O)NCc4cccc(F)c4)c3)cc12 | < 250 | < 250 |  | 
35 | CNC(=O)c1c(-c2ccc(F)cc2)oc2ccc(-c3cc(OCC4CCC4)cc(C(=O)NCC(C)C)c3)cc12 |  |  | > 10000 | 1000 to 10000
36 | CNC(=O)c1c(-c2ccc(F)cc2)oc2ccc(-c3ccc(F)cc3CN)cc12 | > 10000 | > 10000 |  | 
37 | CNC(=O)c1c(-c2ccc(F)cc2)oc2ccc(-c3ccc(C(=O)NCC(N)=O)cc3)cc12 | > 10000 | > 10000 |  | 
38 | CNC(=O)c1c(-c2ccc(F)cc2)oc2ccc(-c3cccc(C(=O)NC(CO)CO)c3)cc12 | 1000 to 10000 | > 10000 |  | 
39 | CNC(=O)c1c(-c2ccc(F)cc2)oc2ccc(-c3cccc(C(=O)NC4CCC4)c3)cc12 | < 250 | < 250 |  | 
40 | C#CC(C)(C)NC(=O)c1cccc(-c2ccc3oc(-c4ccc(F)cc4)c(C(=O)NC)c3c2)c1 | < 250 | < 250 |  | 
41 | CNC(=O)c1c(-c2ccc(F)cc2)oc2ccc(-c3cccc(C(=O)NCC4CCCO4)c3)cc12 (stereo not shown) | < 250 | 250 to 1000 |  | 
42 | CNC(=O)c1c(-c2ccc(F)cc2)oc2ccc(-c3ccc(-c4ccnc(N)c4)c(C(=O)NCC(C)C)c3)cc12 |  |  | < 20 | < 250

Row | Compound | IC50 ([1]; Table 1a) [nM] | EC50 (HCV replicon cells; Table 1a) [nM] | IC50 ([1]; Table 1b) [nM] | EC50 (HCV replicon cells; Table 1b) [nM]
43 | CNC(=O)c1c(-c2ccc(F)cc2)oc2ccc(-c3cccc(C(=O)NC(C)(C)CC(C)(C)C)c3)cc12 | 250 to 1000 | < 250 |  | 
44 | CNC(=O)c1c(-c2ccc(F)cc2)oc2ccc(-c3cc(NC(=O)C4(c5ccccc5)CC4)ccc3C)cc12 |  |  | 1000 to 10000 | 250 to 1000
45 | CNC(=O)c1c(-c2ccc(F)cc2)oc2ccc(-c3cc(C(F)(F)F)ccc3OC)cc12 | > 10000 | > 3700 |  | 
46 | CNC(=O)c1c(-c2ccc(F)cc2)oc2ccc(-c3ccc(C(=O)N(C)CCc4ccccn4)cc3)cc12 | < 250 | < 250 |  | 
47 | CNC(=O)c1c(-c2ccc(F)cc2)oc2ccc(-c3cc(OCCc4cccnc4)cc(C(=O)NCC(C)C)c3)cc12 |  |  | > 10000 | 1000 to 10000
48 | CNC(=O)c1c(-c2ccc(F)cc2)oc2ccc(-c3cc(OCc4nnc(C)o4)cc(C(=O)NCC(C)C)c3)cc12 |  |  | < 250 | 1000 to 10000
49 | C=C[C@@H]1C[C@]1(NC(=O)c1cccc(-c2ccc3oc(-c4ccc(F)cc4)c(C(=O)NC)c3c2)c1)C(=O)NS(=O)(=O)C1CC1 | 250 to 1000 | > 10000 |  | 
50 | CNC(=O)c1c(-c2ccc(F)cc2)oc2ccc(-c3cc(C(=O)NCC(C)C)ccc3O)cc12 | < 250 | < 250 |  | 
51 | CNC(=O)c1c(-c2ccc(F)cc2)oc2ccc(-c3cccc(C(=O)N4CCCCC4)c3)cc12 | 250 to 1000 | 1000 to 10000 |  | 
52 | CNC(=O)c1c(-c2ccc(F)cc2)oc2ccc(-c3ccc(-c4cc(F)cc(F)c4)c(C(=O)NCC(C)C)c3)cc12 |  |  | 250 to 1000 | < 250
53 | CNC(=O)c1c(-c2ccc(F)cc2)oc2ccc(-c3cccc(C(=O)NCCC(C)(C)C)c3)cc12 | < 250 | < 250 |  | 
54 | CNC(=O)c1c(-c2ccc(F)cc2)oc2ccc(-c3cc(OC)cc(C(=O)NCC(C)C)c3)cc12 |  |  | 250 to 1000 | 250 to 1000
55 | CNC(=O)c1c(-c2ccc(F)cc2)oc2ccc(-c3cc(OCCCCN)cc(C(=O)NCC(C)C)c3)cc12 |  |  | < 250 | 1000 to 10000
56 | CNC(=O)c1c(-c2ccc(F)cc2)oc2ccc(-c3cccc(C(=O)NC(C)CC(=O)O)c3)cc12 (stereo not shown) | 250 to 1000 | > 10000 |  | 
57 | CNC(=O)c1c(-c2ccc(F)cc2)oc2ccc(-c3cccc(C(=O)NCc4cnc(C)cn4)c3)cc12 | 250 to 1000 | 250 to 1000 |  | 
58 | CNC(=O)c1c(-c2ccc(F)cc2)oc2ccc(-c3cccc(C(=O)N[C@H](CO)C(=O)OC)c3)cc12 | 250 to 1000 | 1000 to 10000 |  | 
59 | CNC(=O)c1c(-c2ccc(F)cc2)oc2ccc(Oc3ccc(/C=C(\NC(=O)c4ccccc4)C(=O)OC)cc3)cc12 | 1000 to 10000 | 1000 to 10000 |  | 
60 | CCC(NC(=O)c1ccc(F)c(-c2cc3c(C(=O)NC)c(-c4ccc(F)cc4)oc3cc2NS(C)(=O)=O)c1)c1ccccc1 (stereo not shown) |  |  | < 250 | < 250
61 | CNC(=O)c1c(-c2ccc(F)cc2)oc2ccc(-c3cccc(C(=O)NC(C)(C)C(F)(F)F)c3)cc12 | < 250 | < 250 |  | 
62 | C=CCOC(=O)[C@H](C)NC(=O)c1cccc(-c2ccc3oc(-c4ccc(F)cc4)c(C(=O)NC)c3c2)c1 | < 250 | > 10000 |  | 
